According to EP0411751A1, “Renin inhibitory peptides” (Beecham Group p.l.c., priority 1989, dated 1991):

Target: T1, human renin (Homo sapiens, UniProt P00797)
T1 construct: from tissue; host or cells: human plasma from blood of healthy volunteers
T1 sequence (P00797 67-406): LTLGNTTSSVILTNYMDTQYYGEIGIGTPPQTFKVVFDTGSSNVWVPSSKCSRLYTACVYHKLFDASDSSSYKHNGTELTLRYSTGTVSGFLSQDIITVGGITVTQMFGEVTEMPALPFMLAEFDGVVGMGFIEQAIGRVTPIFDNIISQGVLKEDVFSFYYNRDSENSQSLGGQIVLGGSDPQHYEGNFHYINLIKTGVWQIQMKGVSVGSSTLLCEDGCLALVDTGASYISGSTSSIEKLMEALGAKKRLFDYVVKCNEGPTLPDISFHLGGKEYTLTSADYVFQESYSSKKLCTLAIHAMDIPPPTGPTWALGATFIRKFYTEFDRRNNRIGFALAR
Experiment: In vitro human renin inhibition (renin activity in human plasma, angiotensin I radioimmunoassay)
Format: biochemical
Conditions: angiotensin I difference between halves incubated at 37° and 4° for 2 h, linear regression of at least three concentrations, read-out: IC₅₀
Procedure: In vitro human renin inhibition
Renin inhibitory activity was estimated as the percentage change in renin activity in human plasma in the presence and absence of compound. The source of plasma was blood taken from healthy volunteers. Renin activity was defined by the difference in angiotensin I levels between two halves of a sample, one incubated at 37^o and the other at 4^o for 2 h. Angiotensin I levels were measured using a ¹²⁵I- angiotensin I radioimmunoassay kit (NEN/DuPont, Stevenage). Results were calculated as the mean of at least two, duplicate determinations and IC₅₀ values were calculated by linear regression analysis of at least three concentrations of compound.

Compound	IC50
CC(C)CNC(=O)C[C@H](O)[C@H](CC1CCCCC1)NC(=O)[C@H](CC(C)C)NC(=O)[C@H](Cc1ccccc1)NC(=O)CC1CCOc2ccccc21 (stereo partly drawn) [Example E1, Chromanyl-4-acetyl-Phe-Leu-ACHPA isobutylamide .0.5H₂O]	47 nM
Cc1ccc2c(c1)N(CC(=O)N[C@@H](Cc1ccccc1)C(=O)N[C@@H](CC(C)C)C(=O)N[C@@H](CC1CCCCC1)[C@@H](O)CC(=O)NCC(C)C)C(=O)CO2 [Example E2, 2,3-Dihydro-6-methyl-3-oxo-4H-1,4-benzoxazine-4-acetyl-Phe-Leu-ACHPA isobutylamide .H₂O]	220 nM
CC(C)C[C@H](NC(=O)[C@H](Cc1ccccc1)NC(=O)CCN1C(=O)COc2ccc(CN)cc21)C(=O)N[C@@H](CC1CCCCC1)[C@@H](O)CC(=O)NCCCn1ccnc1 [Example E11, 6-(Aminomethyl)-2,3-dihydro-3-oxo-4H-1,4-benzoxazine-4-propanoyl-Phe-Leu-ACHPA 3-(1imidazolyl)propylamide .3CF₃CO₂H]	25 nM
CC(C)C[C@H](NC(=O)[C@H](Cc1ccccc1)NC(=O)CCN1C(=O)COc2ccc(C(=O)O)cc21)C(=O)N[C@@H](CC1CCCCC1)[C@@H](O)CC(=O)NCCCn1ccnc1 [Example E15, 6-Carboxy-2,3-dihydro-3-oxo-4H-1,4-benzoxazine-4-propanoyl-Phe-Leu-ACHPA 3-(1-imidazolyl)propylamide]	42 nM
CC(C)C[C@H](NC(=O)[C@H](Cc1ccccc1)NC(=O)CCN1C(=O)CCS(=O)(=O)c2ccccc21)C(=O)N[C@@H](CC1CCCCC1)[C@@H](O)CC(=O)NCCCn1ccnc1 [Example E19, 3,4-Dihydro-1,1,4-trioxo-1,5-benzothiazepine-5(2H)-propanoyl-Phe-Leu-ACHPA 3-(1-imidazolyl)propylamide]	22 nM

Stronger by IC50, values ahead:

IC50	Compound
13 nM	CC(C)CNC(=O)C[C@H](O)[C@H](CC1CCCCC1)NC(=O)[C@H](CC(C)C)NC(=O)[C@H](Cc1ccccc1)NC(=O)CCN1C(=O)CS(=O)(=O)c2ccccc21 [Example E7, 2,3-Dihydro-1,1,3-trioxo-4H-1,4-benzothiazine-4-propanoyl-Phe-Leu-ACHPA isobutylamide .0.5H₂O]
8 nM	CC(C)C[C@H](NC(=O)[C@H](Cc1ccccc1)NC(=O)CCN1C(=O)CCSc2ccccc21)C(=O)N[C@@H](CC1CCCCC1)[C@@H](O)CC(=O)NCCCn1ccnc1 [Example E18, 3,4-Dihydro-4-oxo-1,5-benzothiazepine-5(2H)-propanoyl-Phe-Leu-ACHPA 3-(1-imidazolyl)propylamide.0.5(CHCl₃)]
